{
  "source": "ChEMBL document CHEMBL1201862",
  "about": "“PubChem BioAssay data set” (2004)",
  "experiment_in_all_cases": "DTP human tumour cell line panel, 48 h",
  "key": {"NCI-H460": {"test_system": "NCI-H460"}, "SN12C": {"test_system": "SN12C"}, "SF-295": {"test_system": "SF-295"}, "OVCAR-8": {"test_system": "OVCAR-8"}, "BT-549": {"test_system": "BT-549"}, "RPMI-8226": {"test_system": "RPMI-8226"}, "SR": {"test_system": "SR"}, "SK-MEL-2": {"test_system": "SK-MEL-2"}, "TK-10": {"test_system": "TK-10"}, "PC-3": {"test_system": "PC-3"}, "SNB-19": {"test_system": "SNB-19"}, "MOLT-4": {"test_system": "MOLT-4"}, "UO-31": {"test_system": "UO-31"}, "NCI/ADR-RES": {"test_system": "NCI/ADR-RES"}, "SK-OV-3": {"test_system": "SK-OV-3"}, "SNB-75": {"test_system": "SNB-75"}, "HCC 2998": {"test_system": "HCC 2998"}, "KM12": {"test_system": "KM12"}, "DU-145": {"test_system": "DU-145"}, "HCT-116": {"test_system": "HCT-116"}, "HL-60": {"test_system": "HL-60"}, "SW-620": {"test_system": "SW-620"}, "MDA-MB-231": {"test_system": "MDA-MB-231"}, "SF-268": {"test_system": "SF-268"}, "NCI-H23": {"test_system": "NCI-H23"}, "HT-29": {"test_system": "HT-29"}, "T47D": {"test_system": "T47D"}, "A549": {"test_system": "A549"}, "Malme-3M": {"test_system": "Malme-3M"}, "UACC-257": {"test_system": "UACC-257"}, "A498": {"test_system": "A498"}, "COLO 205": {"test_system": "COLO 205"}, "SF-539": {"test_system": "SF-539"}, "OVCAR-4": {"test_system": "OVCAR-4"}, "RXF 393": {"test_system": "RXF 393"}, "NCI-H522": {"test_system": "NCI-H522"}, "SK-MEL-28": {"test_system": "SK-MEL-28"}, "MDA-MB-435": {"test_system": "MDA-MB-435"}, "MCF7": {"test_system": "MCF7"}, "U-251": {"test_system": "U-251"}, "OVCAR-5": {"test_system": "OVCAR-5"}, "CCRF-CEM": {"test_system": "CCRF-CEM"}, "SK-MEL-5": {"test_system": "SK-MEL-5"}, "Hs-578T": {"test_system": "Hs-578T"}, "LOX IMVI": {"test_system": "LOX IMVI"}, "OVCAR-3": {"test_system": "OVCAR-3"}, "786-0": {"test_system": "786-0"}, "CAKI-1": {"test_system": "CAKI-1"}, "HOP-62": {"test_system": "HOP-62"}, "HOP-92": {"test_system": "HOP-92"}, "NCI-H226": {"test_system": "NCI-H226"}, "IGROV-1": {"test_system": "IGROV-1"}, "HCT-15": {"test_system": "HCT-15"}, "EKVX": {"test_system": "EKVX"}, "UACC-62": {"test_system": "UACC-62"}, "ACHN": {"test_system": "ACHN"}, "K562": {"test_system": "K562"}, "M14": {"test_system": "M14"}},
  "note": "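Assay format: 96-well plates, 48-hour exposure. GI50 is the concentration that inhibits growth by half.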 Calls of active or inactive are those of the source. Rule as the data show it: active = GI50 up to about 1.1 µM and inactive = higher.",
  "data": [
    {"molecule": "O=C1OCC(c2ccc(Cl)cc2)=C1Cl", "values": [
      {"measurement": "GI50", "setting": "NCI-H460", "value": "17.8 µM (inactive)"},
      {"measurement": "GI50", "setting": "SN12C", "value": "26.7 µM (inactive)"},
      {"measurement": "GI50", "setting": "SF-295", "value": "39.9 µM (inactive)"},
      {"measurement": "GI50", "setting": "OVCAR-8", "value": "25.5 µM (inactive)"},
      {"measurement": "GI50", "setting": "BT-549", "value": "29.2 µM (inactive)"},
      {"measurement": "GI50", "setting": "RPMI-8226", "value": "23.8 µM (inactive)"},
      {"measurement": "GI50", "setting": "SR", "value": "16.7 µM (inactive)"},
      {"measurement": "GI50", "setting": "SK-MEL-2", "value": "22.9 µM (inactive)"},
      {"measurement": "GI50", "setting": "TK-10", "value": "28.3 µM (inactive)"},
      {"measurement": "GI50", "setting": "PC-3", "value": "22.1 µM (inactive)"},
      {"measurement": "GI50", "setting": "SNB-19", "value": "> 100 µM (inactive)"},
      {"measurement": "GI50", "setting": "MOLT-4", "value": "32.1 µM (inactive)"},
      {"measurement": "GI50", "setting": "UO-31", "value": "18.1 µM (inactive)"},
      {"measurement": "GI50", "setting": "NCI/ADR-RES", "value": "26.9 µM (inactive)"},
      {"measurement": "GI50", "setting": "SK-OV-3", "value": "> 100 µM (inactive)"},
      {"measurement": "GI50", "setting": "SNB-75", "value": "> 100 µM (inactive)"},
      {"measurement": "GI50", "setting": "HCC 2998", "value": "29 µM (inactive)"},
      {"measurement": "GI50", "setting": "KM12", "value": "15.4 µM (inactive)"},
      {"measurement": "GI50", "setting": "DU-145", "value": "49.5 µM (inactive)"},
      {"measurement": "GI50", "setting": "HCT-116", "value": "13.9 µM (inactive)"},
      {"measurement": "GI50", "setting": "HL-60", "value": "19.8 µM (inactive)"},
      {"measurement": "GI50", "setting": "SW-620", "value": "25.4 µM (inactive)"},
      {"measurement": "GI50", "setting": "MDA-MB-231", "value": "33.3 µM (inactive)"},
      {"measurement": "GI50", "setting": "SF-268", "value": "21.1 µM (inactive)"},
      {"measurement": "GI50", "setting": "NCI-H23", "value": "19.1 µM (inactive)"},
      {"measurement": "GI50", "setting": "HT-29", "value": "44.7 µM (inactive)"},
      {"measurement": "GI50", "setting": "T47D", "value": "34.7 µM (inactive)"},
      {"measurement": "GI50", "setting": "A549", "value": "35 µM (inactive)"},
      {"measurement": "GI50", "setting": "Malme-3M", "value": "15.6 µM (inactive)"},
      {"measurement": "GI50", "setting": "UACC-257", "value": "40 µM (inactive)"},
      {"measurement": "GI50", "setting": "A498", "value": "82 µM (inactive)"},
      {"measurement": "GI50", "setting": "COLO 205", "value": "24.4 µM (inactive)"},
      {"measurement": "GI50", "setting": "SF-539", "value": "38 µM (inactive)"},
      {"measurement": "GI50", "setting": "OVCAR-4", "value": "44.8 µM (inactive)"},
      {"measurement": "GI50", "setting": "RXF 393", "value": "25.1 µM (inactive)"},
      {"measurement": "GI50", "setting": "NCI-H522", "value": "18.5 µM (inactive)"},
      {"measurement": "GI50", "setting": "SK-MEL-28", "value": "49.9 µM (inactive)"},
      {"measurement": "GI50", "setting": "MDA-MB-435", "value": "33.2 µM (inactive)"},
      {"measurement": "GI50", "setting": "MCF7", "value": "17.5 µM (inactive)"},
      {"measurement": "GI50", "setting": "U-251", "value": "35.8 µM (inactive)"},
      {"measurement": "GI50", "setting": "OVCAR-5", "value": "22.3 µM (inactive)"},
      {"measurement": "GI50", "setting": "CCRF-CEM", "value": "29.2 µM (inactive)"},
      {"measurement": "GI50", "setting": "SK-MEL-5", "value": "17.1 µM (inactive)"},
      {"measurement": "GI50", "setting": "Hs-578T", "value": "45.8 µM (inactive)"},
      {"measurement": "GI50", "setting": "LOX IMVI", "value": "23.2 µM (inactive)"},
      {"measurement": "GI50", "setting": "OVCAR-3", "value": "20.7 µM (inactive)"},
      {"measurement": "GI50", "setting": "786-0", "value": "17.7 µM (inactive)"},
      {"measurement": "GI50", "setting": "CAKI-1", "value": "30.5 µM (inactive)"},
      {"measurement": "GI50", "setting": "HOP-62", "value": "22.9 µM (inactive)"},
      {"measurement": "GI50", "setting": "HOP-92", "value": "31.9 µM (inactive)"},
      {"measurement": "GI50", "setting": "NCI-H226", "value": "55.8 µM (inactive)"},
      {"measurement": "GI50", "setting": "IGROV-1", "value": "< 0.01 µM (active)"},
      {"measurement": "GI50", "setting": "HCT-15", "value": 29.9, "unit": "µM"},
      {"measurement": "GI50", "setting": "EKVX", "value": "28.8 µM (inactive)"},
      {"measurement": "GI50", "setting": "UACC-62", "value": "18.7 µM (inactive)"},
      {"measurement": "GI50", "setting": "ACHN", "value": "42.1 µM (inactive)"},
      {"measurement": "GI50", "setting": "K562", "value": "28.2 µM (inactive)"},
      {"measurement": "GI50", "setting": "M14", "value": "18.8 µM (inactive)"}
    ]}
  ]
}
